The nature of data set [1]: Half life in CD-1 mouse at 10 mg/kg, po measured upto 8 hrs by LC-MS/MS analysis. It is filed as ADME, organism-based. Particulars: in vivo.
Data set [2] is described as follows: MRT in CD-1 mouse at 10 mg/kg, po measured upto 8 hrs by LC-MS/MS analysis. Particulars: in vivo. The format is ADME, organism-based.
For data set [3], the target named is T1, ATP-dependent translocase ABCB1 (Homo sapiens, UniProt P08183). The data set can be described thus: Inhibition of P-gp in human MES-SA/Dx5 cells. It is filed as cell-based.
T1 sequence (P08183 whole entry): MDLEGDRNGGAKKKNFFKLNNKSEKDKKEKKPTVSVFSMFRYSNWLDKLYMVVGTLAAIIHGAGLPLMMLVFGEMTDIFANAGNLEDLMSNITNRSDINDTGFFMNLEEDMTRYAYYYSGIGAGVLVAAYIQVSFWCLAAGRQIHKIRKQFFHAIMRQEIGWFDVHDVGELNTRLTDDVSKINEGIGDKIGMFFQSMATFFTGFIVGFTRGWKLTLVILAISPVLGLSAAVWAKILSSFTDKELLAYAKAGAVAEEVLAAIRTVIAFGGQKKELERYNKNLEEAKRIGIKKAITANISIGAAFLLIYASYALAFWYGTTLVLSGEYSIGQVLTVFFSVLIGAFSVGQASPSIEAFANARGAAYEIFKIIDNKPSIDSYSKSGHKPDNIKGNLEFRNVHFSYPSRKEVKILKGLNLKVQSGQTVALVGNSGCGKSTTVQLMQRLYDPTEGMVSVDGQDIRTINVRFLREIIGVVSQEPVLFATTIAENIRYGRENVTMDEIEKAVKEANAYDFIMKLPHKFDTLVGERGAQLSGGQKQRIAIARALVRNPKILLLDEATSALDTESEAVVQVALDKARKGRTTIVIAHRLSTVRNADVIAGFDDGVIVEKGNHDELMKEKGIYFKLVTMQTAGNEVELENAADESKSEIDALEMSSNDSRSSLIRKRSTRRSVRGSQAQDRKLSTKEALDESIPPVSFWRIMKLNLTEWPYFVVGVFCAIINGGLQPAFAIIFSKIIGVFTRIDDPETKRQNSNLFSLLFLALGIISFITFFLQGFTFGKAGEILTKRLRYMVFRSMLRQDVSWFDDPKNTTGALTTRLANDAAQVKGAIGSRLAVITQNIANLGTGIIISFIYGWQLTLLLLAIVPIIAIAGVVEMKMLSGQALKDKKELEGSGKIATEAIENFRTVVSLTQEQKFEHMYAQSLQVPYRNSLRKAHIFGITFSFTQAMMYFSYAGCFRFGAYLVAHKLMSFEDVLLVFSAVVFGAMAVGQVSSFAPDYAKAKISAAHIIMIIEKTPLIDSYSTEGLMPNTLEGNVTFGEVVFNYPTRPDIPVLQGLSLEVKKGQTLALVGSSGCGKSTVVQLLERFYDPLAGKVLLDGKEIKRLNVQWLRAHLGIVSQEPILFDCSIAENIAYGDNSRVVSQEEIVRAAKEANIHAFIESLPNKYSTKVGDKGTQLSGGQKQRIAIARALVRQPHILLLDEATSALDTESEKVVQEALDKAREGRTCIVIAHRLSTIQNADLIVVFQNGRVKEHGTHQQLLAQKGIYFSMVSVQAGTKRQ
Another data set deals with MES-SA/Dx5. The data set can be described thus: Cytotoxicity against human MES-SA/Dx5 cells at 1.28 uM incubated for 3 days by MTT assay relative to control. The format is functional. Particulars: time 3 day.
The nature of data set [4]: Equilibrium solubility of compound in PBS at pH 7.4. The format is physicochemical. Particulars: PBS.
The target of data set [5] is T2, P-gp (ABCB1) (Homo sapiens, UniProt P08183). The data set can be described thus: Inhibition of P-gp in human Caco-2 cells at 10 uM in presence of paclitaxel relative to control. Particulars: Caco-2, probe paclitaxel. It is filed as cell-based.
T2 sequence (P08183 whole entry): as above
The target in data set [6] is T2, P-gp (ABCB1). The data set can be described thus: Inhibition of P-gp in human Caco-2 cells at 5 uM in presence of paclitaxel relative to control. It is filed as cell-based. Particulars: Caco-2, probe paclitaxel.
Data set [7] concerns the target T2, P-gp (ABCB1). The data set can be described thus: Inhibition of P-gp in human Caco-2 cells at 1 uM in presence of paclitaxel relative to control. Particulars: Caco-2, probe paclitaxel. It is filed as cell-based.
The target in data set [8] is T2, P-gp (ABCB1). The data set can be described thus: Inhibition of P-gp in human Caco-2 cells at 0.1 uM in presence of paclitaxel relative to control. It is filed as cell-based. Particulars: Caco-2, probe paclitaxel.
In data set [9] the target is T2, P-gp (ABCB1). The data set can be described thus: Inhibition of P-gp in human Caco-2 cells at 0.01 uM in presence of paclitaxel relative to control. Particulars: Caco-2, probe paclitaxel. The format is cell-based.
The target in data set [10] is T1, ATP-dependent translocase ABCB1. The data set can be described thus: Inhibition of P-gp in human Caco-2 cells in presence of paclitaxel. It is filed as cell-based.
The nature of data set [11]: Metabolic stability in human liver microsome assessed as half life. It is filed as ADME. Particulars: liver microsomes. For orientation: Liver microsomes are a subcellular fraction often used to study metabolism.
Data set [12] is described as follows: Metabolic stability in rat liver microsome assessed as half life. It is filed as ADME. Particulars: liver microsomes.
The nature of data set [13]: Metabolic stability in mouse liver microsome assessed as half life. Particulars: liver microsomes. The format is ADME.
Data set [14] in a line: Metabolic stability in monkey liver microsome assessed as half life. The format is ADME, Macaca mulatta. Particulars: rhesus monkey, liver microsomes.
Data set [15] is described as follows: Metabolic stability in human liver microsome assessed as intrinsic clearance. It is filed as ADME. Particulars: microsomes.
The nature of data set [16]: Metabolic stability in rat liver microsome assessed as intrinsic clearance. The format is ADME. Particulars: microsomes.
Data set [17] is described as follows: Metabolic stability in mouse liver microsome assessed as intrinsic clearance. The format is ADME. Particulars: microsomes.
Data set [18] is described as follows: Metabolic stability in monkey liver microsome assessed as intrinsic clearance. Particulars: rhesus monkey, microsomes. It is filed as ADME, Macaca mulatta.
For data set [19], the target named is T1, ATP-dependent translocase ABCB1. The data set can be described thus: Inhibition of P-gp (unknown origin) ATPase activity.
In data set [20] the target is T3, Broad substrate specificity ATP-binding cassette transporter ABCG2 (Homo sapiens, UniProt Q9UNQ0).
T3 sequence (Q9UNQ0 whole entry): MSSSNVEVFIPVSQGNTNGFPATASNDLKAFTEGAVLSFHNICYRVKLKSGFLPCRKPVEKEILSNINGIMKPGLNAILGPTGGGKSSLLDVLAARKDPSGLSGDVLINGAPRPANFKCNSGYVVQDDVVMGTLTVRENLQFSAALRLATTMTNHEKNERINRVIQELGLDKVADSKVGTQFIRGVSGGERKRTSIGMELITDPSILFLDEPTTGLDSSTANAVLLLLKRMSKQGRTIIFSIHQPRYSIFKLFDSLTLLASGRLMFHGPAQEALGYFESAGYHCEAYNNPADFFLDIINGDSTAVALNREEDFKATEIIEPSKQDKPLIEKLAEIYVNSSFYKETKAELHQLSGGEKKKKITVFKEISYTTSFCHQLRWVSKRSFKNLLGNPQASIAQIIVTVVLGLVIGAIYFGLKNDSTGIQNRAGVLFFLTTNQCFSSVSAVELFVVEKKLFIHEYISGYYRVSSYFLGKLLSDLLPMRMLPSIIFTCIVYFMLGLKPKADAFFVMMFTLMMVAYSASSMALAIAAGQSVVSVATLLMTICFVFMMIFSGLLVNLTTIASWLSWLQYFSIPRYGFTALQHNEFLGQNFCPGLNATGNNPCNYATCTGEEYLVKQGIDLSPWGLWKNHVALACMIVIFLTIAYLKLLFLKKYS
The data set can be described thus: Inhibition of BCRP (unknown origin) ATPase activity.

A short description of data set [21]: Inhibition of MRP1 (unknown origin) ATPase activity. Set-up: species or system Homo sapiens.
Data set [22] deals with ATP-binding cassette sub-family C member 2 (Homo sapiens, UniProt Q92887). The data set can be described thus: Inhibition of MRP2 (unknown origin) ATPase activity.
Sequence of ATP-binding cassette sub-family C member 2 (Q92887 whole entry): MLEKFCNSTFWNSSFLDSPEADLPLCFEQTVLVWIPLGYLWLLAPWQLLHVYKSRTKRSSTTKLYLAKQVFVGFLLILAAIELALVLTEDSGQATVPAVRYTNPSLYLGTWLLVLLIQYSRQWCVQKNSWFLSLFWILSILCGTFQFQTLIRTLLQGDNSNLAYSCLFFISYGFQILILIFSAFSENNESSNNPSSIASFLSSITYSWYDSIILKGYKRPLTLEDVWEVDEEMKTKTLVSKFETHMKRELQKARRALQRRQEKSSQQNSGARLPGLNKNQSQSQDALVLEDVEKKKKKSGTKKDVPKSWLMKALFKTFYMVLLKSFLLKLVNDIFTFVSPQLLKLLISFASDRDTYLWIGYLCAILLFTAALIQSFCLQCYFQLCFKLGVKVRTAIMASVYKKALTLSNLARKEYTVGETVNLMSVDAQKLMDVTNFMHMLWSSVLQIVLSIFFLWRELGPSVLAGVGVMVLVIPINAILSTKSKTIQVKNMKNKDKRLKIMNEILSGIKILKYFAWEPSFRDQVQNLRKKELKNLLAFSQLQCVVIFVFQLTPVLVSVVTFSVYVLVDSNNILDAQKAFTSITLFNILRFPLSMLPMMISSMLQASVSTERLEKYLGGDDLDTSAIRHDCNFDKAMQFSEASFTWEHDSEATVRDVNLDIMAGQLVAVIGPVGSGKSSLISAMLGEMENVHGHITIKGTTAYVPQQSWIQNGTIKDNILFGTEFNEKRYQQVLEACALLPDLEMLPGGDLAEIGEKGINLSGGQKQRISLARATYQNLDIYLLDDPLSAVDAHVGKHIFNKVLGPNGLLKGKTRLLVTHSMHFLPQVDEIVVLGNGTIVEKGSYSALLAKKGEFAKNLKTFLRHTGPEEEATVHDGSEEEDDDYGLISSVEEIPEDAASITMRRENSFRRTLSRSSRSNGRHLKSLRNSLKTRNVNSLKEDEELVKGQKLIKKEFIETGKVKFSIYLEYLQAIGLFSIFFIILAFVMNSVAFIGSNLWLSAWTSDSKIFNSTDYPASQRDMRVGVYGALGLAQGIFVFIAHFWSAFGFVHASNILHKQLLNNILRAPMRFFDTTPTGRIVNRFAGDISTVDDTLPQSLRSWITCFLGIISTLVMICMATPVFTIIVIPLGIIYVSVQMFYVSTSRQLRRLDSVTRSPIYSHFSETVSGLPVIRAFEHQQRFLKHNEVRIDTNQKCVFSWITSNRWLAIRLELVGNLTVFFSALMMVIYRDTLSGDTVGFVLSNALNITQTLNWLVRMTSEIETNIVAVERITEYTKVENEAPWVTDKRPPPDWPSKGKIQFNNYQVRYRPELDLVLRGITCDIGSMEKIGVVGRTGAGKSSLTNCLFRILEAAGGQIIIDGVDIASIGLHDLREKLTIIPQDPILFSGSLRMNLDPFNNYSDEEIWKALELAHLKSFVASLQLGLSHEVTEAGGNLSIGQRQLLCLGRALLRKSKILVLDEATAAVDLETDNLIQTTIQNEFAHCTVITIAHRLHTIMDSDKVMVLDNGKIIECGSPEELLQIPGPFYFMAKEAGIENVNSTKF
Data set [23] can be described thus: Apparent permeability of compound across basolateral to apical side in human Caco-2 cells. It is filed as ADME, cell-based. A general note: Caco-2 monolayers are a common model of the intestinal barrier.
A short description of data set [24]: Apparent permeability of compound across apical to basolateral side in human Caco-2 cells. The format is ADME, cell-based.
Data set [25] can be described thus: Apparent permeability across apical to basolateral side in human Caco-2 cells assessed as drug recovery. It is filed as ADME, cell-based. Particulars: read-out: Drug recovery.
Data set [26] can be described thus: Apparent permeability across basolateral to apical side in human Caco-2 cells assessed as drug recovery. Particulars: read-out: Drug recovery. It is filed as ADME, cell-based.
Data set [27] in a line: Tmax in Sprague-Dawley rat at 20 mg/kg, po measured upto 24 hrs by LC-MS/MS analysis. The format is ADME, organism-based. Particulars: in vivo.
Data set [28] is described as follows: Cmax in Sprague-Dawley rat at 20 mg/kg, po measured upto 24 hrs by LC-MS/MS analysis. It is filed as ADME, organism-based. Particulars: in vivo.
Data set [29] in a line: AUC (0 to t) in Sprague-Dawley rat at 20 mg/kg, po measured upto 24 hrs by LC-MS/MS analysis. It is filed as ADME, organism-based. Particulars: in vivo.
Data set [30] is described as follows: MRT in Sprague-Dawley rat at 20 mg/kg, po measured upto 24 hrs by LC-MS/MS analysis. The format is ADME, organism-based. Particulars: in vivo.

From ChEMBL document CHEMBL5523718, “Design, synthesis, molecular modeling, in vitro and in vivo biological evaluation of potent anthranilamide derivatives as dual P-glycoprotein and CYP3A4 inhibitors” (Eur J Med Chem, 2024) come the findings set out here.

Molecules are shown by their SMILES. In brackets after ≈: the same amount, converted by molar mass. Where only a bound is given, the exact number is not on record here.

A word on the half-life: it is the time in which the quantity being followed falls by half. As usually defined, the MRT is a mean duration of stay, worked out from the concentration-time curve. For orientation: EC50 means the concentration needed to bring the measured effect to its halfway point. What is called thermodynamic solubility is solubility found after equilibrating the solid with the medium. Broadly, the inhibition is how much of the control response was suppressed. The IC50 is the point on the concentration scale where inhibition reaches its midpoint. With `COc1cc2c(cc1OC)CN(CCc1ccc(NC(=O)c3cc(OC)c(OC)cc3NC(=O)c3cnc4ccccc4c3)cc1)CC2`, the half-life in data set [1] is 66.6 min; in data set [11], above 60 min; in [12], above 60 min; in data set [13] it was above 60 min; in [14], 35 min. Further, the MRT in data set [2] came to 1.26 h. In data set [3], this compound returned an EC50 of 35 nM. This compound yielded an Activity in the data set on MES-SA/Dx5 of 5%. The compound further displayed a thermodynamic solubility in data set [4] of 0.44 µM (≈ 0.285 µg/mL). Moreover, the inhibition at 10 µM at P-gp (ABCB1) [5] was 96%. In addition, on P-gp (ABCB1) [6], the inhibition at 5 µM was 96%. The inhibition at 1 µM on P-gp (ABCB1) [7] came out at 92%. Besides, at P-gp (ABCB1) [8], the inhibition at 0.1 µM stood at 77%. The inhibition at 0.01 µM on P-gp (ABCB1) [9] came out at 0%. The IC50 in [10] is 53 nM; in data set [19], 35 nM; in data set [20] it was 237 nM; in data set [21], above 10 µM; in data set [22], above 10 µM. Besides, the CLH in data set [15] is below 0.023 mL/min/mg; in data set [16] it was below 0.023 mL/min/mg; in [17] it was below 0.023 mL/min/mg; in data set [18], 0.039 mL/min/mg.

One may read the Papp B→A as how fast a substance crosses the layer from the basolateral side. As a reminder, the Papp A→B is the apparent permeability from the apical to the basolateral side of a cell layer. For orientation: Tmax means the time at which the peak concentration occurs. In general, Cmax refers to the highest concentration seen after dosing. Consider `CC(=O)O[C@H]1C(=O)[C@@]2(C)[C@H]([C@H](OC(=O)c3ccccc3)[C@]3(O)C[C@H](OC(=O)[C@H](O)[C@@H](NC(=O)c4ccccc4)c4ccccc4)C(C)=C1C3(C)C)[C@]1(OC(C)=O)CO[C@@H]1C[C@@H]2O` [PACLITAXEL], for which the Papp B→A in data set [23] stood at 17.1 ×10⁻⁶ cm/s. Moreover, in data set [24], the Papp A→B was determined as 0.41 ×10⁻⁶ cm/s. Moreover, the recovery in data set [25] came to 54%; in data set [26] it was 66%. In addition, in data set [27], the Tmax turned out to be 8 h. The Cmax in data set [28] is 14.9 ng/mL. In data set [29], the AUCt was 95.9 ng·h/mL. This compound registered an MRT in data set [30] of 5.37 h.
